Measurements taken from US20260103465A1, “GLYCOGEN SYNTHASE KINASE 3 INHIBITORS AND USES THEREOF” (The Broad Institute, Inc., priority 2023, published 2026).
Like-named read-outs stand apart in the source and are kept apart here.

What was measured:
[1] = molecular target: T1, GSK3b (GST-full length GSK3b) (Homo sapiens, UniProt P49841); experiment: GSK3b TR-FRET kinase inhibition assay; type: biochemical
T1 construct: GST-full length GSK3b: [SignalChem G08-9G]; purchased SignalChem G08-9G
Method in brief: (§1)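 IC50 derived from normalized 665/615 TR-FRET signal (Tb anti-pSer641 antibody, streptavidin-d2), read after EDTA stop. Reaction: 1 nM GST-full-length enzyme, 30 min compound pre-incubation, 100 min at ambient temperature in Tris pH 7.5 with 1% DMSO, 200 nM biotinylated primed glycogen synthase peptide, ATP 2 μM to 1 mM.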

[2] = molecular target: T2, GSK3a (GST-full length GSK3a) (Homo sapiens, UniProt P49840); experiment: GSK3a TR-FRET kinase inhibition assay; type: biochemical
T2 construct: GST-full length GSK3a [SignalChem G08-10G]; purchased SignalChem G08-10G
Method in brief: as §1

[3] = Human liver microsomal stability; type: in vitro ADME; conditions: human liver microsomes
Method: Stability of compound (5 μL of a 10 mM DMSO solution) in human liver microsomes was tested in duplicate by incubating compound at 1 μM for 60 minutes at 37° C. Compound level at 60 minutes was compared to level at 0 minutes, and percent remaining was calculated. Order by selecting Microsomal Stability in Prometheus, checking boxes for desired species. Assay Controls: microsomes with NADPH without compound-matrix interference. Microsomes plus compound without NADPH—non-enzymatic instability.

[4] = test system: MDR1-MDCK cell monolayers; experiment: MDR1/MDCK permeability assay; type: in vitro ADME; conditions: for MDCK Permeability (MDR1-MDCK); Mean; Papp(A-B) (10^−6 cm/s): A to B; for MDCK Permeability (MDR1-MDCK); Mean; Papp(B-A) (10^−6 cm/s): B to A; for MIDCK Permeability (MDR1-MDCK); Mean; P. Ratio(B-A/A-B) Efflux Ratio / MDCK Permeability (MDR1-MDCK); Mean; P. Ratio(B-A/A-B) Efflux Ratio: Papp B-A/A-B
Text: The MDR1/MDCK assay is run at WuXi and Absorption Systems. This assay is used to determine the blood-brain barrier (BBB) penetration potential of a test compound using MDR1-MDCK cell monolayers. Catalog number EA203.
• The percent recovery of the test compound from the Transwell® wells containing MDR1-MDCK cell monolayers • The apparent permeability (Papp) in both directions • The efflux ratio (Papp B to A)/(Papp A to B) • The blood-brain barrier penetration potential classification: • High when • Papp A to B≥3.0×10^−6 cm/s, and efflux<3.0 • Moderate when • Papp A to B≥3.0×10^−6 cm/s, and 10>efflux≥3.0 • Low when either • Papp A to B≥3.0×10^−6 cm/s, and […], or when • Papp A to B<[…].
• Test compound at 5 μM in HBSSg with maximum DMSO concentration not greater than 1%.
• Confluent monolayers of MDR1-MDCK cells, 7 to 11 days old.
• Receiver well with 1% BSA in modified Hanks buffer (HBSSg) • Apical and basolateral side at pH 7.4 • Dose two monolayers in each direction (N=2) • Dose apical side for (A to B) assessment • Dose basolateral side for (B to A) assessment • Sample both apical and basolateral sides at 120 minutes • Determine the concentrations of test compound using a generic LC-MS/MS method with a minimum 4 point calibration curve.
• The quality of the cell monolayer batch is verified using control compounds before monolayers are released for use • The quality of each monolayer used in the assay is verified by a TEER measurement and by calculating the Papp for a control compound.

[5] = 1 mM ATP, Table 3, read-out: GSK3b TR-FRET 1 mM ATP Average IC50
[6] = 1 mM ATP, Table 3, read-out: GSK3a TR-FRET 1 mM ATP Average IC50
[7] = 10 μM ATP, read-out: GSK3b 10 μM ATP Average IC50
[8] = 100 μM ATP, read-out: GSK3b 100 μM ATP Average IC50
[9] = 10 μM ATP, read-out: GSK3a 10 μM ATP Average IC50
[10] = 100 μM ATP, read-out: GSK3a 100 μM ATP Average IC50
[11] = 2 μM ATP, read-out: GSK3β TR-FRET 2 μM ATP GMean IC50
[12] = 1 mM ATP, Table 4, read-out: GSK3β TR-FRET 1 mM ATP GMean IC50
[13] = 4 μM ATP, read-out: GSK3α TR-FRET 4 μM ATP GMean IC50
[14] = 1 mM ATP, Table 4, read-out: GSK3α TR-FRET 1 mM ATP GMean IC50

T1 sequence (P49841 whole entry): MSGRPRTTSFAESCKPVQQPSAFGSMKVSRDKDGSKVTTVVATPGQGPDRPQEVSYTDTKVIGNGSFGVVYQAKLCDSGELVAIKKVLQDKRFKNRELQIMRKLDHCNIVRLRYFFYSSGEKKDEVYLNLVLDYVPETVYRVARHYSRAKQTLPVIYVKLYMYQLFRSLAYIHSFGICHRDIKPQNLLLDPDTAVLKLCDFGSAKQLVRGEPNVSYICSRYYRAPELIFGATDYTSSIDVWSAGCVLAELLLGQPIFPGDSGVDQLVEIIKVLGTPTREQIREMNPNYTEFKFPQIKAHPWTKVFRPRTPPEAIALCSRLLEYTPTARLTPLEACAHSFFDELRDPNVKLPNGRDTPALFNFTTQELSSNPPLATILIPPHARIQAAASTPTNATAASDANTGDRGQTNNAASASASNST
T2 sequence (P49840 whole entry): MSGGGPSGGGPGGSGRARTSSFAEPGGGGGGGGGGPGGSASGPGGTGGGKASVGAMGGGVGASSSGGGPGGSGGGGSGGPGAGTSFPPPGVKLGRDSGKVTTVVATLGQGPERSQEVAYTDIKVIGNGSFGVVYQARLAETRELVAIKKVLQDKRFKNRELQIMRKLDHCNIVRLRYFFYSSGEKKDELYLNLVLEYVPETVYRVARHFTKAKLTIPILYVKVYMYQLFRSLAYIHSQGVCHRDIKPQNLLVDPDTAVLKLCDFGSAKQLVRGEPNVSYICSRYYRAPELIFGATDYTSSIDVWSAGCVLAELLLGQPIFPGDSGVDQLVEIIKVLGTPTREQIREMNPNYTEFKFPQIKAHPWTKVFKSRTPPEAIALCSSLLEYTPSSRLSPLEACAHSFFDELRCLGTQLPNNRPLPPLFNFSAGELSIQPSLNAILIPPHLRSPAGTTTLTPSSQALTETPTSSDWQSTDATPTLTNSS

| SMILES | IC50 [1, 5] | IC50 [2, 6] | Microsome Stability (Human) (DMPK_BIIB); Mean; in vitro t1/2 ([3]; Table 3) | MDCK Permeability (MDR1-MDCK); Mean; Papp(A-B) (10^−6 cm/s) ([4]; Table 3) | MDCK Permeability (MDR1-MDCK); Mean; Papp(B-A) (10^−6 cm/s) ([4]; Table 3) | MIDCK Permeability (MDR1-MDCK); Mean; P. Ratio(B-A/A-B) Efflux Ratio ([4]; Table 3) | IC50 [1, 7] | IC50 [1, 8] | IC50 [2, 9] | IC50 [2, 10] | IC50 [1, 11] | IC50 [1, 12] | IC50 [2, 13] | IC50 [2, 14] | Microsome Stability (Human) (DMPK_BIIB); Mean; in vitro t1/2 ([3]; Table 4) | MDCK Permeability (MDR1-MDCK); Mean; Papp(A-B) (10^−6 cm/s) ([4]; Table 4) | MDCK Permeability (MDR1-MDCK); Mean; Papp(B-A) (10^−6 cm/s) ([4]; Table 4) | MDCK Permeability (MDR1-MDCK); Mean; P. Ratio(B-A/A-B) Efflux Ratio ([4]; Table 4) |
| --- | --- | --- | --- | --- | --- | --- | --- | --- | --- | --- | --- | --- | --- | --- | --- | --- | --- | --- |
| CC1(C)CC(=O)C2=C(C1)Nc1ncc(C(F)(F)F)cc1C2(C)c1ccccc1 (single isomer, unassigned) [Compound 128B] | 1000 to 5000 nM | 1000 to 5000 nM | >145 min | 20 10^−6 cm/s | 10 10^−6 cm/s | 0.53 | – | – | – | – | – | – | – | – | – | – | – | – |
| CC(C)(C)Cc1cnc2c(c1)C(C)(c1ccccc1)C1=C(CC(C)(C)CC1=O)N2 (single isomer, unassigned) [Compound 129A] | 5000 to 20000 nM | – | 11 min | 2.1 10^−6 cm/s | 1.2 10^−6 cm/s | 0.60 | 5000 to 20000 nM | 20000 to 60000 nM | 20000 to 60000 nM | – | – | – | – | – | – | – | – | – |
| CC(C)(C)Cc1cnc2c(c1)C(C)(c1ccccc1)C1=C(CC(C)(C)CC1=O)N2 (single isomer, unassigned) [Compound 129B] | 5000 to 20000 nM | 5000 to 20000 nM | 1.1 min | 1.8 10^−6 cm/s | 1.0 10^−6 cm/s | 0.59 | 5000 to 20000 nM | 20000 to 60000 nM | 20000 to 60000 nM | – | – | – | – | – | – | – | – | – |
| CC(C)(C)Cc1ccnc2c1C(C)(c1ccccc1)C1=C(CC(C)(C)CC1=O)N2 (single isomer, unassigned) [Compound 130A] | 5000 to 20000 nM | 5000 to 20000 nM | 0.55 min | 1.4 10^−6 cm/s | 0.65 10^−6 cm/s | 0.48 | ≤ 100 nM | 100 to 1000 nM | ≤ 100 nM | 100 to 1000 nM | – | – | – | – | – | – | – | – |
| CC(C)(C)Cc1ccnc2c1C(C)(c1ccccc1)C1=C(CC(C)(C)CC1=O)N2 (single isomer, unassigned) [Compound 130B] | 5000 to 20000 nM | 5000 to 20000 nM | 0.53 min | 1.3 10^−6 cm/s | 0.75 10^−6 cm/s | 0.60 | 100 to 1000 nM | 100 to 1000 nM | 100 to 1000 nM | 1000 to 5000 nM | – | – | – | – | – | – | – | – |
| CCC1(c2cccc(-c3cncn3C(C)C)c2)C2=C(CC(C)(C)CC2=O)Nc2ncccc21 (single isomer, unassigned) [Compound 149A] | 100 to 1000 nM | 100 to 1000 nM | 16 min | – | – | – | ≤ 100 nM | ≤ 100 nM | ≤ 100 nM | ≤ 100 nM | ≤ 100 nM | 100 to 1000 nM | ≤ 100 nM | ≤ 100 nM | 9.9 min | 2.3 10^−6 cm/s | 41 10^−6 cm/s | 18 |
| CCC1(c2cccc(-c3c(C)nn(C)c3C)c2)C2=C(CC(C)(C)CC2=O)Nc2ncccc21 (single isomer, unassigned) [Compound 150A] | 100 to 1000 nM | 100 to 1000 nM | 1.9 min | 20 10^−6 cm/s | 17 10^−6 cm/s | 0.93 | ≤ 100 nM | ≤ 100 nM | ≤ 100 nM | ≤ 100 nM | > 5000 nM | – | 1000 to 5000 nM | – | – | – | – | – |
| CCC1(c2cccc(-c3c(C)nn(C)c3C)c2)C2=C(CC(C)(C)CC2=O)Nc2ncccc21 (single isomer, unassigned) [Compound 150B] | – | – | – | – | – | – | – | – | – | – | ≤ 100 nM | 1000 to 5000 nM | ≤ 100 nM | 100 to 1000 nM | 2.7 min | 2.9 10^−6 cm/s | 29 10^−6 cm/s | 9.9 |
| CCC1(c2cccc(-c3c(F)cncc3OC)c2)C2=C(CC(C)(C)CC2=O)Nc2ncccc21 (single isomer, unassigned) [Compound 154A] | – | – | 6.4 min | 15 10^−6 cm/s | 9.5 10^−6 cm/s | 0.62 | – | – | – | – | > 5000 nM | – | > 5000 nM | – | – | – | – | – |
| CCC1(c2cccc(-c3c(F)cncc3OC)c2)C2=C(CC(C)(C)CC2=O)Nc2ncccc21 (single isomer, unassigned) [Compound 154B] | 5000 to 20000 nM | 5000 to 20000 nM | – | – | – | – | – | – | – | – | ≤ 100 nM | 100 to 1000 nM | ≤ 100 nM | ≤ 100 nM | 6.6 min | 3.1 10^−6 cm/s | 25 10^−6 cm/s | 8.3 |
| CCC1(c2cccc(-c3c(F)cncc3OC)c2)C2=C(CC(C)(C)CC2=O)Nc2ncc(F)cc21 (single isomer, unassigned) [Compound 161A] | – | – | 10 min | 12 10^−6 cm/s | 6.9 10^−6 cm/s | 0.59 | – | – | – | – | 1000 to 5000 nM | – | 100 to 1000 nM | – | – | – | – | – |
